{"source": "patent US11998600B2", "about": "“Enhancing the therapeutic activity of an immune checkpoint inhibitor” (MaineHealth, priority 2015, dated 2024)", "assay_type_in_all_cases": "cell-based, human", "key": {"[1]": {"tested_on": "endothelial cells (HUVECs)", "assay": "Actin stress fiber formation in HUVECs attached to collagen peptides (F-actin stain)", "settings": "FIG. 7G", "description": "CAMs examined for accumulation of granulation tissue were harvested, fixed in 4% PFA and paraffin embedded and sectioned (4 μm) and stained with Giemsa. CAM tissues analyzed via immunofluorescence were harvested, embedded with OCT, snap frozen and sectioned ([…]). Frozen sections were fixed in 50% methanol/50% acetone, air dried and blocked with 2.5% BSA for 1 h at 37° C. For expression of the XL313 and XL166 epitopes as well as monocyte/macrophages, FGF-2 stimulated CAM tissues were stained with Mabs XL313, XL166 (50 μg/ml) or KUL1 (1:250) and then incubated with Alexa-488 labeled secondary antibodies (1:2000 dilution). […] Using a similar strategy, sections of RGD peptide-treated CAM tissues were analyzed for phosphorylated-P38MAPK in angiogenic vessels by co-incubation of anti-phospho-P38MAPK (1:50) and anti-vWf (1:500) antibodies. […]\nBecause both RGD containing peptides bind αvβ3 coupled with the differential effect of these peptides on angiogenesis and inflammation, it was determined whether the RGD peptides differentially altered αvβ3-mediated signaling. […] Therefore, the differential phosphorylation of these protein kinases following the early mechanical-mediated interactions with the RGD containing collagen peptides was assessed. […]"}, "[2]": {"tested_on": "endothelial cells in which YAP was knocked down", "assay": "Cell proliferation assay, endothelial cells transduced with YAP specific shRNA", "settings": "soluble peptide (FIG. 8H) or VEGF 50 ng/ml (FIG. 8I)", "description": "HUVECs (WT, shYAP1 or control transfected) or HRMVECs were plated at 2,000 cells per well with complete EGM-2 media containing 2.0% FBS in the absence or presence of P-1, P-2 or P-C (100 ng/ml) and allowed to grow for 24 hours. Cell growth was monitored using a BrdU or MMT assay kits according to manufacturer's instructions. All assays were completed at least three times in triplicate wells.\nRaw cells were transfected with 1 μg of HuSH shRNA plasmids for collagen type I, alpha 2 using Amaxa cell line nucleofector kit V (program #T024). Constructs expressing 21-nucleotide short hairpin RNAs (shRNA) targeting human YAP (shYAP) or non-targeting control (shNT, Sigma-Aldrich, SHC002) were used. Humantargeting shYAP1 lentiviral shRNA was obtained from the Thermo Scientific RNAi consortium (TRCN0000107625). Constructs were packaged into lentivirus, pseudotyped with the vesicular stomatitis virus glycoprotein. Transduction was performed by incubating cells with lentivirus, and stably transduced cells were subsequently used for studies. All cell lines were verified by morphology and mouse and human YAP-specific PCR. […] Endothelial cells were certified mycoplasma-negative by PCR (Lonza), and primary cell cultures were used within the indicated passage numbers. Cells were transduced and selected using puromycin.\nEndothelial cells with YAP specific or non-specific shRNAs were transduced."}, "[3]": {"tested_on": "Src", "assay": "Src phosphorylation in endothelial cells attached to collagen peptides, Western blot", "settings": "HUVEC; FIG. 7D", "description": "Whole cell and CAM tissue lysates were collected in RIPA buffer supplemented with 1× protease inhibitor and 1× phosphatase inhibitor and were run on polyacrylamide gels using denaturing conditions. Prior to loading the gels, 6× sample buffer was added to each of the lysates (final concentration 1×) and boiled for five minutes. Twenty to 50 μg of total protein were loaded into each lane. […] Gels were run at 60 volts (v) until the dye front passed through the stacking gel, and then the voltage was increased to 100V for the remainder of the separation. Precision Plus protein standards (Bio-Rad) were used to visualize migration. Protein was transferred to nitrocellulose membranes using a wet tank system and blocked for 1 h using 10% non-fat dried milk in tris-buffered saline with 0.01% Tween-20 (TBS-T). […] Membranes were washed 3 times in TBS-T for five minutes. Blots were then incubated with HRP conjugated secondary antibodies (1:15000) in 1% non-fat milk in TBS-T for 1 h. Membranes were washed a second time as indicated above and exposed to chemiluminecent substrate for three minutes prior to exposure to autoradiography film in a dark room. Western blot bands were quantified using Image J software based on pixel intensity."}}, "data": [{"sequence": "QGPRGDKGE [Mab P-2]", "values": [{"measurement": "actin stress fiber formation, P-2 as compared to P-1", "setting": "[1]", "value": "accelerated actin stress fiber formation"}, {"measurement": "endothelial cell growth in YAP knock down cells", "setting": "[2]", "value": "failed to induce growth"}, {"measurement": "enhancement of Src phosphorylation, P-2 as compared to P-1", "setting": "[3]", "value": "~2", "unit": "fold"}]}]}
